# Data from patent US6964949B2, “Pharmaceutical compositions for promoting the growth of gram-positive bacilli and increasing the acidity in the vagina and the use thereof” (Shanghai Jiao Da Onlly Co., Ltd., priority 2000, dated 2005).
# Tests used:
# [1] = test system: L. acidophilus, C. albicans, C. tropicalis; assay: Terconazole in Maltose Broth, Group 1 co-culture: turbidity and Gram-stained smear; assay type: cell-based; set-up: key to Turbidity, Group 1: ++: The cultural fluid was heavily turbid; +: The cultural fluid was turbid; +/−: The turbidity of the cultural fluid was not affirmative; key to Microbes (Gram-stained smear), Group 1: Lb: Lactobacilli; Candida; details: 18 hours, 37° C., candle jar
# Description: (§1) • 1. Materials: • Maltose Broth: 10.0% maltose, 2.0% yeast extract, K2HPO4 0.5%, MgSO4 0.05%, MnSO40.1%, pH adjusted to 6.2, sterilized. • Anti-fungi drug: Terconazole • Clinically isolated Lactobacillus strains: Lactobacillus acidophilus, Lactobacillus crispatus, and Lactobacillus jensenii. Three lactobacillus suspensions were prepared separately from each of these three lactobacillus strains.
# (§2) Clinically isolated Candida strains: Candida albicans and Candida tropicalis. Two Candidal suspensions were prepared separately from each of these two candida strains. • 2.
# (§3) • There were six tubes in each group and each tube contained 2 ml Maltose Broth and different concentration of Terconazole, as shown in Table 1. • The turbidity values of three lactobacillus suspensions and two Candidal suspensions were tested by Turbidimeter and adjusted to 0.3. 50 ul of each prepared lactobacillus suspension and Candidal suspension were separately added into tubes according to Table 1. • All of these experimental tubes were put into candle jars as soon as the lactobacillus suspensions and candidal suspensions were added, and then incubated at 37° C. for 18 hours. • After 18 hours' incubation the turbidity of each tube was examined and Gram-stained smear of cultural fluid of corresponding tube was observed under microscopy to check microbes. Results
# [2] = test system: L. crispatus, C. albicans, C. tropicalis; assay: Terconazole in Maltose Broth, Group 2 co-culture: turbidity and Gram-stained smear; assay type: cell-based; set-up: key to Turbidity, Group 2: ++: The cultural fluid was heavily turbid; +: The cultural fluid was turbid; +/−: The turbidity of the cultural fluid was not affirmative; key to Microbes (Gram-stained smear), Group 2: Lb: Lactobacilli; Candida; details: 18 hours, 37° C., candle jar
# Description: as §1, §2, §3
# [3] = test system: three Lactobacillus strains; assay: Terconazole in Maltose Broth: growth of the three Lactobacillus strains (Groups 1-3); assay type: cell-based; details: 400 ug/ml of Terconazole, 18 hours
# Description: as §1, §2, §3
# [4] = test system: L. jensenii, C. albicans, C. tropicalis; assay: Terconazole in Maltose Broth, Group 3 co-culture: turbidity and Gram-stained smear; assay type: cell-based, Lactobacillus jensenii, Candida albicans, Candida tropicalis; set-up: key to Turbidity, Group 3: ++: The cultural fluid was heavily turbid; +: The cultural fluid was turbid; +/−: The turbidity of the cultural fluid was not affirmative; key to Microbes (Gram-stained smear), Group 3: Lb: Lactobacilli; Candida; details: 18 hours, 37° C., candle jar
# Description: as §1, §2, §3
# [5] = test system: C. albicans, C. tropicalis; assay: Terconazole in Maltose Broth, Group 4 (Candidal group): turbidity and Gram-stained smear; assay type: cell-based, Candida albicans, Candida tropicalis; set-up: key to Turbidity, Group 4: ++: The cultural fluid was heavily turbid; +: The cultural fluid was turbid; +/−: The turbidity of the cultural fluid was not affirmative; details: 18 hours; for Turbidity, Group 4: 37° C., candle jar
# Description: as §1, §2, §3
smiles,measurement,setting,value
CC(C)N1CCN(c2ccc(OCC3COC(Cn4cncn4)(c4ccc(Cl)cc4Cl)O3)cc2)CC1 (stereo not shown) [Terconazole],"Microbes (Gram-stained smear), Group 1",[1]; Terconazole 25 ug/ml,Lb
same,"Turbidity, Group 1",[1]; Terconazole 25 ug/ml,++
same,"Microbes (Gram-stained smear), Group 1",[1]; Terconazole 50 ug/ml,Lb
same,"Turbidity, Group 1",[1]; Terconazole 50 ug/ml,++
same,"Microbes (Gram-stained smear), Group 1",[1]; Terconazole 100 ug/ml,Lb
same,"Turbidity, Group 1",[1]; Terconazole 100 ug/ml,++
same,"Microbes (Gram-stained smear), Group 1",[1]; Terconazole 200 ug/ml,Lb
same,"Turbidity, Group 1",[1]; Terconazole 200 ug/ml,++
same,"Microbes (Gram-stained smear), Group 1",[1]; Terconazole 400 ug/ml,Lb
same,"Turbidity, Group 1",[1]; Terconazole 400 ug/ml,++
same,"Microbes (Gram-stained smear), Group 2",[2]; Terconazole 25 ug/ml,Lb
same,"Turbidity, Group 2",[2]; Terconazole 25 ug/ml,++
same,"Microbes (Gram-stained smear), Group 2",[2]; Terconazole 50 ug/ml,Lb
same,"Turbidity, Group 2",[2]; Terconazole 50 ug/ml,++
same,"Microbes (Gram-stained smear), Group 2",[2]; Terconazole 100 ug/ml,Lb
same,"Turbidity, Group 2",[2]; Terconazole 100 ug/ml,++
same,"Microbes (Gram-stained smear), Group 2",[2]; Terconazole 200 ug/ml,Lb
same,"Turbidity, Group 2",[2]; Terconazole 200 ug/ml,++
same,"Microbes (Gram-stained smear), Group 2",[2]; Terconazole 400 ug/ml,Lb
same,"Turbidity, Group 2",[2]; Terconazole 400 ug/ml,++
same,growth of three Lactobacillus strains,[3],didn't inhibit the growth
same,"Microbes (Gram-stained smear), Group 3",[4]; Terconazole 25 ug/ml,Lb
same,"Turbidity, Group 3",[4]; Terconazole 25 ug/ml,++
same,"Microbes (Gram-stained smear), Group 3",[4]; Terconazole 50 ug/ml,Lb
same,"Turbidity, Group 3",[4]; Terconazole 50 ug/ml,++
same,"Microbes (Gram-stained smear), Group 3",[4]; Terconazole 100 ug/ml,Lb
same,"Turbidity, Group 3",[4]; Terconazole 100 ug/ml,++
same,"Microbes (Gram-stained smear), Group 3",[4]; Terconazole 200 ug/ml,Lb
same,"Turbidity, Group 3",[4]; Terconazole 200 ug/ml,++
same,"Microbes (Gram-stained smear), Group 3",[4]; Terconazole 400 ug/ml,Lb
same,"Turbidity, Group 3",[4]; Terconazole 400 ug/ml,++
same,growth of the two Candidal strains,[5]; 25 ug/ml or greater concentration of Terconazole,inhibited the growth
same,"Turbidity, Group 4",[5]; Terconazole 25 ug/ml,+/−
same,"Turbidity, Group 4",[5]; Terconazole 50 ug/ml,+/−
same,"Turbidity, Group 4",[5]; Terconazole 100 ug/ml,+/−
same,"Turbidity, Group 4",[5]; Terconazole 200 ug/ml,+/−
same,"Turbidity, Group 4",[5]; Terconazole 400 ug/ml,+/−
